Reference: ChEMBL document CHEMBL1671725, “The ABC transporter AnrAB contributes to the innate resistance of Listeria monocytogenes to nisin, bacitracin, and various beta-lactam antibiotics” (2010)
≈ marks a conversion by molar mass, not a printed value. Bridge positions count the residues as written; N and C are the ends. Square brackets hold non-standard residues; d marks the D form. Peptide text beside a SMILES is read from it. * marks the point of attachment. Ileψ(thiazoline)Cys = CC[C@H](C)[C@H](N)C1=N[C@H](C(=O)*)CS1; dOrn = NCCC[C@@H](N)C(=O)O

Columns and labels:
Assay type in all cases: functional
Listeria monocytogenes [1] = experiment: Antimicrobial activity against anrB-deficient Listeria monocytogenes EGD-e at 30 ug after 16 hrs by disk diffusion assay; settings: read-out: IZ
Listeria monocytogenes [2] = experiment: Antimicrobial activity against Listeria monocytogenes EGD-e at 30 ug after 16 hrs by disk diffusion assay; settings: read-out: IZ
Listeria monocytogenes [3] = experiment: Antimicrobial activity against mprF-deficient Listeria monocytogenes EGD-e assessed as growth inhibition after 16 hrs by broth dilution method
Listeria monocytogenes [4] = experiment: Antimicrobial activity against lisK-deficient Listeria monocytogenes EGD-e assessed as growth inhibition after 16 hrs by broth dilution method relative to wild type
Listeria monocytogenes [5] = experiment: Antimicrobial activity against anrB-deficient Listeria monocytogenes EGD-e at 10 ug after 16 hrs by disk diffusion assay; settings: read-out: IZ
Listeria monocytogenes [6] = experiment: Antimicrobial activity against Listeria monocytogenes EGD-e at 10 ug after 16 hrs by disk diffusion assay; settings: read-out: IZ
Listeria monocytogenes [7] = experiment: Antimicrobial activity against mprF-deficient Listeria monocytogenes EGD-e assessed as growth inhibition after 16 hrs by broth dilution method relative to wild type
Listeria monocytogenes [8] = experiment: Antimicrobial activity against telA-deficient Listeria monocytogenes EGD-e assessed as growth inhibition after 16 hrs by broth dilution method relative to wild type
Listeria monocytogenes [9] = experiment: Antimicrobial activity against anrB-deficient Listeria monocytogenes EGD-e assessed as growth inhibition after 16 hrs by broth dilution method
Listeria monocytogenes [10] = experiment: Antimicrobial activity against virR-deficient Listeria monocytogenes EGD-e assessed as growth inhibition after 16 hrs by broth dilution method
Listeria monocytogenes [11] = experiment: Antimicrobial activity against Listeria monocytogenes EGD-e assessed as growth inhibition after 16 hrs by broth dilution method
Listeria monocytogenes [12] = experiment: Antimicrobial activity against lisK-deficient Listeria monocytogenes EGD-e assessed as growth inhibition after 16 hrs by broth dilution method
Listeria monocytogenes [13] = experiment: Antimicrobial activity against virR-deficient Listeria monocytogenes EGD-e assessed as growth inhibition after 16 hrs by broth dilution method relative to wild type
Listeria monocytogenes [14] = experiment: Antimicrobial activity against anrB-deficient Listeria monocytogenes EGD-e assessed as growth inhibition after 16 hrs by broth dilution method relative to wild type
Listeria monocytogenes [15] = experiment: Antimicrobial activity against telA-deficient Listeria monocytogenes EGD-e assessed as growth inhibition after 16 hrs by broth dilution method
Listeria monocytogenes [16] = experiment: Antimicrobial activity against Listeria monocytogenes EGD-e at 5 ug after 16 hrs by disk diffusion assay; settings: read-out: IZ
Listeria monocytogenes [17] = experiment: Antimicrobial activity against anrB-deficient Listeria monocytogenes EGD-e at 5 ug after 16 hrs by disk diffusion assay; settings: read-out: IZ
Listeria monocytogenes [18] = experiment: Antimicrobial activity against Listeria monocytogenes EGD-e at 1 ug after 16 hrs by disk diffusion assay; settings: read-out: IZ
Listeria monocytogenes [19] = experiment: Antimicrobial activity against anrB-deficient Listeria monocytogenes EGD-e at 1 ug after 16 hrs by disk diffusion assay; settings: read-out: IZ
Listeria monocytogenes [20] = experiment: Antimicrobial activity against Listeria monocytogenes EGD-e at 100 ug after 16 hrs by disk diffusion assay; settings: read-out: IZ
Listeria monocytogenes [21] = experiment: Antimicrobial activity against anrB-deficient Listeria monocytogenes EGD-e at 100 ug after 16 hrs by disk diffusion assay; settings: read-out: IZ

| MIC (Listeria monocytogenes [9]) [µg/mL] | MIC (Listeria monocytogenes [11]) [µg/mL] | SMILES | zone of inhibition at 30 µg/disc (Listeria monocytogenes [1]) [mm] | zone of inhibition at 30 µg/disc (Listeria monocytogenes [2]) [mm] | fold change (FC) (Listeria monocytogenes [14]) | other results |
| --- | --- | --- | --- | --- | --- | --- |
| – | – | CC1=C(C(=O)O)N2C(=O)[C@@H](NC(=O)[C@H](N)c3ccccc3)[C@H]2SC1 [CEPHALEXIN ANHYDROUS] | 14.8 | 12.2 | – | – |
| – | – | CCN1CCN(C(=O)N[C@@H](C(=O)N[C@@H]2C(=O)N3C(C(=O)O)=C(CSc4nnnn4C)CS[C@H]23)c2ccc(O)cc2)C(=O)C1=O [CEFOPERAZONE] | 24 | 20.6 | – | – |
| 32 (≈ 22.5 µM) | 256 (≈ 180 µM) | CC[C@H](C)[C@H](N)C1=N[C@H](C(=O)N[C@@H](CC(C)C)C(=O)N[C@H](CCC(=O)O)C(=O)N[C@H](C(=O)N[C@H]2CCCCNC(=O)[C@H](CC(N)=O)NC(=O)[C@@H](CC(=O)O)NC(=O)[C@H](Cc3cnc[nH]3)NC(=O)[C@@H](Cc3ccccc3)NC(=O)[C@H]([C@@H](C)CC)NC(=O)[C@@H](CCCN)NC2=O)[C@@H](C)CC)CS1 [BACITRACIN] ({Ileψ(thiazoline)Cys}-L[dE]IK[dOrn]I[dF]H[dD]N; lactam 4-C) | – | – | 8 | MIC (Listeria monocytogenes [3]): 64 µg/mL (≈ 45 µM); Ratio (Listeria monocytogenes [4]): -2; zone of inhibition at 10 µg/disc (Listeria monocytogenes [5]): 20 mm; zone of inhibition at 10 µg/disc (Listeria monocytogenes [6]): 10.5 mm; Ratio (Listeria monocytogenes [7]): -4; Ratio (Listeria monocytogenes [8]): -2; MIC (Listeria monocytogenes [10]): 2 µg/mL (≈ 1.41 µM); MIC (Listeria monocytogenes [12]): 128 µg/mL (≈ 90 µM); Ratio (Listeria monocytogenes [13]): -128; MIC (Listeria monocytogenes [15]): 128 µg/mL (≈ 90 µM) |
| 1.44 (≈ 3.39 µM) | 2.87 (≈ 6.76 µM) | CO/N=C(\C(=O)N[C@@H]1C(=O)N2C(C(=O)O)=C(COC(N)=O)CS[C@H]12)c1ccco1 [CEFUROXIME] | 24.8 | 21.3 | 2 | – |
| – | – | N[C@@H](C(=O)N[C@@H]1C(=O)N2C(C(=O)O)=C(Cl)CS[C@H]12)c1ccccc1 [CEFACLOR ANHYDROUS] | 24.8 | 22.2 | – | – |
| – | – | CC(C)(O/N=C(\C(=O)N[C@@H]1C(=O)N2C(C(=O)[O-])=C(C[n+]3ccccc3)CS[C@H]12)c1csc(N)n1)C(=O)O [CEFTAZIDIME] | 7.8 | 6.1 | – | – |
| 0.5 (≈ 0.231 µM) | 2 (≈ 0.924 µM) | C/C=C(/NC(=O)[C@H](CCCCN)NC(=O)[C@H](C)NC(=O)[C@H]1CS[C@@H](C)[C@@H](NC(=O)[C@H]2CSC[C@@H](NC(=O)[C@H](C)NC(=O)[C@@H](N)[C@@H](C)CC)C(=O)N[C@@H](CCCCN)C(=O)N[C@@H](Cc3ccccc3)C(=O)N[C@@H](CC(C)C)C(=O)N2)C(=O)N2CCC[C@H]2C(=O)NCC(=O)N1)C(=O)NCC(=O)N[C@@H]1CSC[C@H]2NC(=O)[C@H](Cc3ccc(O)cc3)NC(=O)[C@@H](CS/C=C/NC2=O)NC(=O)[C@H](CC(N)=O)NC(=O)[C@H](Cc2ccccc2)NC1=O [GALLIDERMIN] | – | – | 4 | – |
| – | – | CC1=C(C(=O)O)N2C(=O)[C@@H](NC(=O)[C@H](N)C3=CCC=CC3)[C@H]2SC1 [CEPHRADINE] | 16.9 | 13.6 | – | – |
| – | – | CCN1CCN(C(=O)N[C@@H](C(=O)N[C@@H]2C(=O)N3[C@@H]2SC(C)(C)[C@@H]3C(=O)O)c2ccccc2)C(=O)C1=O [PIPERACILLIN] | 35.3 | 30.7 | – | – |
| 0.36 (≈ 1.08 µM) | 0.72 (≈ 2.15 µM) | CC1(C)S[C@@H]2[C@H](NC(=O)Cc3ccccc3)C(=O)N2[C@H]1C(=O)O [PENICILLIN G] | – | – | 2 | zone of inhibition at 5 µg/disc (Listeria monocytogenes [16]): 30.5 mm; zone of inhibition at 5 µg/disc (Listeria monocytogenes [17]): 34.7 mm |
| 0.5 (≈ 1.43 µM) | 1 (≈ 2.86 µM) | CC1(C)S[C@@H]2[C@H](NC(=O)[C@H](N)c3ccccc3)C(=O)N2[C@H]1C(=O)O [AMPICILLIN] | – | – | 2 | zone of inhibition at 10 µg/disc (Listeria monocytogenes [5]): 36.6 mm; zone of inhibition at 10 µg/disc (Listeria monocytogenes [6]): 32.8 mm |
| 1 (≈ 2.2 µM) | 2 (≈ 4.39 µM) | CO/N=C(\C(=O)N[C@@H]1C(=O)N2C(C(=O)O)=C(COC(C)=O)CS[C@H]12)c1csc(N)n1 [CEFOTAXIME] | 22.5 | 19.6 | 2 | – |
| – | – | Cc1onc(-c2ccccc2)c1C(=O)N[C@@H]1C(=O)N2[C@@H]1SC(C)(C)[C@@H]2C(=O)O [OXACILLIN] | – | – | – | zone of inhibition at 1 µg/disc (Listeria monocytogenes [18]): 9.6 mm; zone of inhibition at 1 µg/disc (Listeria monocytogenes [19]): 11.9 mm |
| – | – | CC1(C)S[C@@H]2[C@H](NC(=O)C(C(=O)O)c3ccccc3)C(=O)N2[C@H]1C(=O)O (stereo partly drawn) [CARBENICILLIN] | – | – | – | zone of inhibition at 100 µg/disc (Listeria monocytogenes [20]): 36.7 mm; zone of inhibition at 100 µg/disc (Listeria monocytogenes [21]): 43 mm |
| – | – | C[C@@H](O)[C@H]1C(=O)N2C(C(=O)O)=C(SCCNC=N)C[C@H]12 [IMIPENEM ANHYDROUS] | 42.3 | 39.7 | – | – |
| – | – | CO[C@@]1(NC(=O)CSCC#N)C(=O)N2C(C(=O)O)=C(CSc3nnnn3C)CS[C@@H]21 [CEFMETAZOLE] | 34.2 | 31.4 | – | – |
| – | – | CC(=O)OCC1=C(C(=O)O)N2C(=O)[C@@H](NC(=O)Cc3cccs3)[C@H]2SC1 [CEPHALOTHIN] | 33.6 | 30.3 | – | – |
| – | – | C=C(NC(=O)[C@@H](NC(=O)[C@H](Cc1cnc[nH]1)NC(=O)[C@@H](NC(=O)[C@H](CO)NC(=O)[C@@H]1CS[C@@H](C)[C@H]2NC(=O)C(=C)NC(=O)[C@H](NC(=O)[C@H](CCCCN)NC(=O)[C@H](CCSC)NC(=O)[C@H](CC(N)=O)NC(=O)[C@@H]3CS[C@@H](C)[C@@H](NC(=O)[C@H](CCCNN)NC(=O)[C@@H]4CS[C@@H](C)[C@@H](NC(=O)[C@@H]5CSC[C@@H](NC(=O)/C(=C\C)NC(=O)[C@@H](N)[C@@H](C)CC)C(=O)N[C@@H]([C@@H](C)CC)C(=O)NC(=C)C(=O)N[C@@H]([C@@H](C)CC)C(=O)N5)C(=O)N5CCC[C@H]5C(=O)NCC(=O)N4)C(=O)NCC(=O)N[C@@H](C)C(=O)N[C@@H]([C@@H](C)CC)C(=O)N[C@@H](CCSC)C(=O)NCC(=O)N3)[C@H](C)SC[C@H](NC2=O)C(=O)N[C@H](Cc2cnc[nH]2)C(=O)N1)[C@@H](C)CC)C(C)C)C(=O)N[C@@H](CCCCN)C(=O)O [NISIN] | – | – | 2 | Ratio (Listeria monocytogenes [4]): 2; Ratio (Listeria monocytogenes [7]): -16; Ratio (Listeria monocytogenes [8]): -2; Ratio (Listeria monocytogenes [13]): -32 |
